Measurements from publication PMC7358525, “Characterization of PF-6142, a Novel, Non-Catecholamine Dopamine Receptor D1 Agonist, in Murine and Nonhuman Primate Models of Dopaminergic Activation” (Frontiers in Pharmacology, 2020).

What was measured:
[1] = tested on: time spent awake, in SWS and REM sleep; assay: Rat polysomnography; type: in vivo; conditions: 5.6 mg/kg s.c., first 4 h
Excerpt: Model 4ET telemetry device components (Data Sciences International, St Paul, MN, USA) were bilaterally placed in subcutaneous pockets on the dorsal flank of adult male Sprague-Dawley rats (200–400 grams). Two pairs of leads were implanted superficially to burr holes drilled over the frontal cortex (stainless steel screws, Plastics One, Roanoke, VA at coordinates: A-P = +1.5 mm, M-L = 1.5 mm) and parietal cortex (coordinates: A-P = −3.7 mm, M-L = −2.2 mm), and the cerebellum bilaterally to be used as ground and reference for electroencephalographic (EEG) recordings. A stainless-steel wire (Plastics One, Roanoke, VA) was implanted into the neck muscle to monitor electromyogram (EMG). All recordings were performed inside the home cages of animals using RPC-2 telemetry receivers (Data Sciences International, St. Paul, MN) at a sampling rate of 500 Hz for data acquisition. Baseline data, while on vehicle, were obtained for 24 h prior to compound administration. PF-6142 (1.0 or 5.6 mg/kg, s.c.) was administered acutely following the baseline day.
Raw EEG traces were analyzed using custom scripts in MATLAB (The Mathworks, Natick, MA, version 7.8 (R2009a)) to evaluate spectral changes between treatment groups. Raw EEG data were read into the MATLAB software, segmented to match that of the polysomnography (PSG) data (see below) and fast Fourier transforms (FFTs) were performed. Only data collected on the parietal lead were the subject of statistical analyses. PSG analysis was applied to all EEG/EMG data and utilized an in-house algorithm developed in LabView (National Instruments, Austin TX) as previously described ([Harvey et al., 2013]).
Relative power data in each band aggregated over 2 h-long time bins, while on drug, were normalized to baseline levels in corresponding time bins relative to dosing. For statistical analysis the R software was used. The effects of two within factors, dose and time, on cumulative time spent in three stages, awake, REM, and NREM sleep were assessed using generalized linear mixed model. […]

[2] = tested on: acetylcholine levels in the PFC of WT and D1 KO mice; assay: Prefrontal cortex acetylcholine levels via microdialysis, WT and D1 KO mouse; type: in vivo; conditions: 10 mg/kg SC
Excerpt: Adult male Sprague-Dawley rats (280–360 g) were obtained from Charles-River Laboratories, Raleigh, NC and male C57BL/6J DRD1a WT and D1 DA receptor knockout mice (DRD1a-905781) were obtained from The Jackson Laboratories (Bar Harbor, ME). Animals were housed on a 12-h light/dark cycle with free access to food and water and allowed to acclimate for at least 5 d after arrival. Aseptic technique was used during the surgical procedure in order to prevent infection. On the day of the procedure animals were anesthetized with isoflurane (4%) and their heads shaved. The animals were then placed into a Kopf stereotaxic frame, the surgical area disinfected by swabbing with Provodine solution, and the area isolated with a sterile surgical drape. Anesthesia was maintained with isoflurane (2.5%–3%) delivered through a nose cone using a Univentor 400 anesthesia unit. Animals were given a 0.1 ml subcutaneous (s.c.) injection of Metacam (NSAID, meloxicam, 5 mg/ml, Boehringer Ingelheim) as a post-operative analgesic. Marcaine (bupivacaine, 0.5%, Hospira, Lake Forest, IL), a long acting local anesthetic, was administered s.c. at the surgical area to minimize pain and discomfort.
A 1.5–2 cm incision was made along the midline of the skull, beginning from a point just behind the eyes and running posterior. The skin was retracted with hemostats and the skull was further exposed using blunt dissection with cotton swabs. Bleeding capillaries were cauterized, and the skull dried with a sterile gauze sponge.
A microdialysis guide cannula [Bioanalytical Systems Inc (BAS), West Lafayette, IN, part # MD-2251] was placed into a guide holder on the stereotaxic frame and positioned over “Bregma”. The guide cannula was positioned over the PFC (A-P, +3.2 mm; M-L, +0.7 mm, left, relative to bregma) and the location marked on the skull. Using a 0.7 mm burr, a hole was made in the skull at the cannula position. […]
For conventional analysis, ACh was analyzed by high performance liquid chromatography (HPLC) utilizing a modification of the BAS ACh-choline assay kit (BAS part # MF-8910). […]

## Cc1cc(Oc2nccc3occc23)ccc1-c1c(C)ncc2nccn12 [PF-6142]
[1]
  decrease of time spent in slow-wave sleep relative to vehicle: 88.1%
  difference in fraction of REM sleep, vehicle vs high dose group: 88.2%
  increase of time spent awake: 246.9%
[2]; D1 KO mice
  PFC ACh levels vs vehicle (AUC 75-180 min): not in the KO group
[2]; WT mice
  PFC ACh levels vs vehicle (AUC 75-180 min): increased ACh levels
